Earlier results, collected in patent US7807193B2 (priority 2002, dated 2010).

Assays:
[1] = patients having adult onset diabetes, drug treatment therapy versus insulin treatment
ob/ob mice = conditions: homozygous diabetic mouse model (ob/ob); U.S. application 20020037861 A1

| SMILES | Mortality rates [1] | Levels of blood glucose, triglycerides, insulin and glycosylated hemoglobin versus control ob/ob mice not given topiramate (ob/ob mice) |
| --- | --- | --- |
| CN(C)C(=N)N=C(N)N [metformin] | 8% |  |
| CC1(C)O[C@@H]2[C@@H](CO[C@@]3(COS(N)(=O)=O)OC(C)(C)O[C@@H]23)O1 [topiramate, 2,3:4,5-bis-O-(1-methylethylidene)-β-D-fructopyranose sulfamate] |  | significantly lower |
